Measured values as given in publication PMC7717570, “Deciphering the enzymatic target of a new family of antischistosomal agents bearing a quinazoline scaffold using complementary computational tools” (Journal of Enzyme Inhibition and Medicinal Chemistry, 2020).

How the values were obtained:
[1] = system: Schistosoma mansoni mature worms; assay: In vitro S. mansoni worm killing; settings: Schistosoma mansoni, 120 h, day 5, initial test (Table 2), read-out: Worm killing (% of total)
Description: The percentage reduction of worm or egg burden in each treated group was calculated. […] Results are expressed as mean ± SEM. A two-tailed, unpaired Student’s t-test was used to detect the significance of difference between the means of different groups. […] Stock solutions of 5 mM PZQ and the quinazoline derivatives 2–13 were prepared in DMSO. Concentrations of 100 µM, 50 µM, 25 µM, 10 µM and 5 µM were freshly prepared on the day of experiment in RPMI-1640 medium. All compounds were initially tested at 100 and 50 µM; those showing worm killing were further tested at 25, 10 and 5 µM. Worms were obtained from SBSC of TBRI. Six to eight worms were placed in 12-well tissue culture plates and fresh RPMI-1640 medium (supplemented with glutamine, 20% newborn calf serum and streptomycin, penicillin, and gentamicin), containing the indicated concentration of the test compound was added[20]^,[21]. Worms were incubated overnight in a CO2 incubator at 37 °C. On the 2nd day, worms were examined by microscopy, washed three times with normal saline, fresh medium was added and the incubation was continued. On the 3rd day, worm motility was observed and on the 4th day, medium was changed again. On day 5 (end of the observation period), worms were microscopically examined for their motility and appearance. Each concentration was tested in duplicate, and the final recording of percent worm mortality was determined as the number of dead worms [contracted and opaque] divided by the total number of worms × 100. Negative controls used medium without additions or medium with 2% DMSO; positive control media containing identical concentrations of PZQ were tested in parallel.

[2] = system: Schistosoma mansoni worm couples; assay: S. mansoni ovipositing capacity and coupling; settings: initial test (Table 2); for inhibition at 50 µM / inhibition at 100 µM: Schistosoma mansoni, 120 h, read-out: Reduction in number of eggs (%)
Description: Stock solutions of 5 mM PZQ and the quinazoline derivatives 2–13 were prepared in DMSO. Concentrations of 100 µM, 50 µM, 25 µM, 10 µM and 5 µM were freshly prepared on the day of experiment in RPMI-1640 medium. All compounds were initially tested at 100 and 50 µM; those showing worm killing were further tested at 25, 10 and 5 µM. 12-well tissue culture plates were used, each well containing 6–8 worms with at least one worm couple. Worms were incubated overnight in a CO2 incubator at 37 °C. Each concentration was tested in duplicate wells. On day 4, eggs were counted and discarded and the medium was changed. On day 5 (end of observation period) newly deposited eggs were counted. The final egg number is the total count of days 4 and 5 for each concentration tested and the final recording of the percentage of egg reduction was determined as [the total number of eggs on days 4 and 5 of control – the total number of eggs on days 4 and 5 of treated]/the total number of eggs on days 4 and 5 of control × 100.

Structure (SMILES)	killing at 50 µM [1]	killing at 100 µM [1]	Uncoupling ([2]; 50 µM)	Uncoupling ([2]; 100 µM)	inhibition at 50 µM ([2]; 50 µM)	inhibition at 100 µM ([2]; 100 µM)
COc1ccc(Cn2c(=O)c3ccc(Br)cc3n(Cc3ccc(C(F)(F)F)cc3)c2=O)cc1 [compound 7, 7-Bromo-1-(4-(trifluoromethyl)benzyl)-3-(4-methoxybenzyl)quinazolin-2,4(1H,3H)-dione]	0%	0%	No	No	35%	50%
Cc1cc(Br)c2c(c1)c(=O)n(Cc1ccc(F)cc1)c(=O)n2Cc1ccc(C(F)(F)F)cc1 [compound 12, 8-Bromo-3-(4-fluorobenzyl)-1-(4-(trifluoromethyl)benzyl)-6-methylquinazolin-2,4(1H,3H)-dione]	0%	0%	No	Yes	50%	100%
COc1ccc(Cn2c(=O)c3cc(Br)ccc3n(Cc3ccc(C(F)(F)F)cc3)c2=O)cc1 [compound 5, 6-Bromo-1-(4-(trifluoromethyl)benzyl)-3-(4-methoxybenzyl)quinazolin-2,4(1H,3H)-dione]	0%	100%	No	Yes	31%	100%
COc1ccc(Cn2c(=O)c3ccccc3n(Cc3ccc(C(F)(F)F)cc3)c2=O)cc1 [compound 3, 1-(4-(Trifluoromethyl)benzyl)3-(4-methoxybenzyl)quinazolin-2,4(1H,3H)-dione]	0%	75%	Yes	Yes	100%	100%
O=c1c2cc(Cl)ccc2n(Cc2ccc(C(F)(F)F)cc2)c(=O)n1Cc1ccc(F)cc1 [compound 8, 6-Chloro-3-(4-fluorobenzyl)-1-(4-(trifluoromethyl)benzyl)quinazolin-2,4(1H,3H)-dione]	0%	100%	Yes	Yes	100%	100%
O=c1c2cc(Br)ccc2n(Cc2ccc(C(F)(F)F)cc2)c(=O)n1Cc1ccc(F)cc1 [compound 4, 6-Bromo-3-(4-fluorobenzyl)-1-(4-(trifluoromethyl)benzyl)quinazolin-2,4(1H,3H)-dione]	13%	100%	Yes	Yes	100%	100%
O=c1c2ccccc2n(Cc2ccc(C(F)(F)F)cc2)c(=O)n1Cc1ccc(F)cc1 [compound 2, 3-(4-Fluorobenzyl)-1-(4-(trifluoromethyl)benzyl)quinazolin-2,4(1H,3H)-dione]	0%	100%	No	Yes	100%	100%
COc1ccc(Cn2c(=O)c3cc(C)cc(Br)c3n(Cc3ccc(C(F)(F)F)cc3)c2=O)cc1 [compound 13, 8-Bromo-1-(4-(trifluoromethyl)benzyl)-3-(4-methoxybenzyl)-6-methylquinazolin-2,4(1H,3H)-dione]	0%	33%	Yes	Yes	100%	100%
O=c1c2ccc(Br)cc2n(Cc2ccc(C(F)(F)F)cc2)c(=O)n1Cc1ccc(F)cc1 [compound 6, 7-Bromo-3-(4-fluorobenzyl)-1-(4-(trifluoromethyl)benzyl)quinazolin-2,4(1H,3H)-dione]	0%	88%	Yes	Yes	100%	100%
